This is an account of results in paper PMC9181543, “Lysosomal Exocytosis of Olivacine on the Way to Explain Drug Resistance in Cancer Cells” (International Journal of Molecular Sciences, 2022).

Structures are written as SMILES. Where two headings read alike, the source gives them in different places.

Assay [1] relates to CCRF/CEM cells. As to the kind of experiment: Evaluation of the cell cycle (Tali Cell Cycle Kit). The class given is cell-based, human. The following applies: for cell cycle effect: after exposure. How it is done:
It is expected that tested compounds affect cell division processes (intense in cancer). Therefore, the effect of compounds on the cell cycle was assessed by quantifying the content of cellular DNA in CCRF/CEM cells with Tali Cell Cycle Kit (Invitrogen). Cells were prepared by 24 h initial incubation in RPMI-1640 medium followed by the addition of tested compounds for a further 24 h. Subsequently, cells were harvested, centrifuged, washed, dissolved in PBS, and centrifuged again. After removing PBS, the cells were resuspended in Tali Cell Cycle Solution and incubated for 20 min in the dark at RT. Finally, the cells were transferred to the Tali Cellular Analysis Slides and analyzed using an image-based cytometer Arthur (NanoEnTek Inc.).

The test system of assay [2] is A549 cells. As to the kind of experiment: Cell morphology, microscopic observation, A549. The class given is cell-based, human. The following applies: for cell morphology: 24 h incubation. As for the experimental part: Olivacine, similar to ellipticine, is a compound with fluorescent properties. Therefore, by analyzing the intensity of fluorescence over time, it is possible to assess the cellular pharmacokinetics of the compounds. At the same time, cell morphology was also assessed. The cells were seeded into a 96-well plate and cultured for 24 h (37 °C, 5% CO2) for cell adhesion to the surface and regeneration. […] The culture plate was placed under a Juli microscope, and the device with the plate inside was put in the CO2 incubator. Pictures were taken every 15 min for 24 h. We have prepared software that allowed us to measure the fluorescence intensity of the indicated cells. Fluorescence analysis was performed for all images (every 15 min) during a period of rapid change in fluorescence intensity and less often at a later period when it stabilized. Three independent experiments were carried out, always analyzing 50 selected cells.

Assay [3] has as its system CCRF/CEM cells. As to the kind of experiment: MTT assay (mitochondrial activity), CCRF/CEM. The class given is cell-based. The following applies: Homo sapiens. As for the experimental part:
(§1) The anticancer activity of tested compounds was assessed on five human cell lines selected from the panel of tumor cell lines recommended by the National Cancer Institute: A495 (lung carcinoma), CCRF/CEM (acute lymphoblastic leukemia), LoVo and LoVo/DX (two types of colorectal: non-resistant and resistant to doxorubicin), and MCF-7 (breast adenocarcinoma). In addition, the NHDF cell line (normal human dermal fibroblasts) was used to estimate cytotoxicity to noncancer cells. The A549, CCRF/CEM, LoVo, LoVo/DX, and MCF-7 cells were obtained from ECACC, and NHDF cells from LONZA, Belgium. The A549 and MCF-7 cells were grown in EMEM medium, CCRF/CEM cells in RPMI-1640, LoVo and LoVo/DX cells in DMEM/F-12, and NHDF cells in DMEM without phenol red. The cells were seeded in […] in the biological assay, as recommended by the National Cancer Institute. All culture media were supplemented with L-glutamine, penicillin, streptomycin, and 10% fetal bovine serum (FBS). Cells were incubated at 37 °C and 5% CO2. An assessment of the mitochondrial cell activity after applying tested compounds was carried out using the test MTT assay, recommended in the ISO 10993-5:2009 standard. As in the SRB assay, the cells were exposed to tested compounds after 24 h of initial incubation in 96-well plates. The MTT solution (1 mg/mL) was added to each well, and cells were incubated for 2 h. Finally, the supernatant was removed, and the formazan crystals were dissolved in isopropanol. After 30 min, absorbance at 570 nm in Victor2 microplate reader (PerkinElmer). Cell viability was determined as the IC50 ratio, i.e., the concentration of the compound in which the viability was reduced by half compared with the control.
Background: Formazan colour is commonly taken as a measure of viable cells.

For assay [4], the system named is A549 cells. As to the kind of experiment: SRB assay (total protein content), A549. The class given is cell-based. The conditions noted are these: Homo sapiens, 48 h incubation. How it is done:
(§2) The anticancer activity of tested compounds was assessed on five human cell lines selected from the panel of tumor cell lines recommended by the National Cancer Institute: A495 (lung carcinoma), CCRF/CEM (acute lymphoblastic leukemia), LoVo and LoVo/DX (two types of colorectal: non-resistant and resistant to doxorubicin), and MCF-7 (breast adenocarcinoma). In addition, the NHDF cell line (normal human dermal fibroblasts) was used to estimate cytotoxicity to noncancer cells. The A549, CCRF/CEM, LoVo, LoVo/DX, and MCF-7 cells were obtained from ECACC, and NHDF cells from LONZA, Belgium. The A549 and MCF-7 cells were grown in EMEM medium, CCRF/CEM cells in RPMI-1640, LoVo and LoVo/DX cells in DMEM/F-12, and NHDF cells in DMEM without phenol red. The cells were seeded in […] in the biological assay, as recommended by the National Cancer Institute. All culture media were supplemented with L-glutamine, penicillin, streptomycin, and 10% fetal bovine serum (FBS). Cells were incubated at 37 °C and 5% CO2. One of the most popular in vitro tests to evaluate the activity of compounds with potential antitumor activity is the SRB assay. […] Growth inhibition was calculated following the NCI guidelines and expressed as the GI50 ratio, i.e., the concentration of the compound in which the amount of protein was reduced by half compared with the control.
(In general: The SRB assay estimates cell density from bound dye.)

Assay [5] concerns MCF-7 cells. As to the kind of experiment: MTT assay (mitochondrial activity), MCF-7. The class given is cell-based. The following applies: Homo sapiens, MCF7. How it is done:
as §1

Assay [6] has as its system NHDF cells. As to the kind of experiment: SRB assay (total protein content), NHDF. The class given is cell-based. The following applies: Homo sapiens, NHDF normal cells, 48 h incubation. How it is done: as §2, with “assay. The sulforhodamine B dye is used, which binds to the protein at the appropriate pH. The assay allows for assessing cell mass and, indirectly, their proliferation. The advantage of the assay is that it measures cellular protein content and not the activity of any enzymes. The SRB assay was carried out according to the National Cancer Institute procedure. Cells were incubated in a culture medium for 24 h in 96-well plates. After 24 h, the control plate for each cell line was fixed with TCA to evaluate cell culture before treatment with tested compounds. […] Cell cultures were then fixed by adding 50% TCA at 4 °C for 1 h. After removing the supernatant, the plates were washed with water and dried.” for “assay.”

Assay [7] concerns MCF-7 cells. The arrangement: method as in PMID 11755121. The following applies: 48 h exposure; cited from earlier work.
For assay [8], the system named is CCRF/CEM cells. The arrangement: method as in PMID 11755121. The conditions noted are these: 48 h exposure; cited from earlier work.
Assay [9] deals with CCRF/CEM cells. The arrangement: method as in PMID 24898668. The conditions noted are these: cited from earlier work.
The subject of assay [10] is pancreatic cancer cells. On the set-up: method as in PMID 10737712. The following applies: 1 μM; cited from earlier work.
Assay [11] deals with T24 cell. On the set-up: method as in PMID 28138703. The conditions noted are these: T24 cell study; cited from earlier work.

Usually IC50 stands for the concentration needed to halve the response being measured. As a reminder, the GI50 is the concentration giving 50% growth inhibition. Higher therefore signals lower sensitivity of the cells. For the compound `Cc1nccc2c(C)c3[nH]c4ccccc4c3cc12` [Olivacine, 1,5-dimethyl-6H-pyrido[4,3-b]carbazole], the “cell cycle inhibition at lower concentrations” value in assay [1] (0.2 µM and 0.5 µM) is given as “No cell cycle inhibition”. Besides, the cell cycle effect entry in [1] is “blockade of the cell cycle in the G0/G1 phase”. The cell morphology result in assay [2] (2 μM) is “Cytosol degradation”; in [2] (20 μM), “completely degraded”. The “concentration at which growth inhibition is visible” value in assay [2] (microscopic observation, 24 h) came to 2 µM. For the same compound, the IC50 in [3] amounted to 11 ± 3.3 µM; in assay [5], 18.5 ± 2.41 µM. Also, the GI50 amounted to 0.93 ± 0.06 µM in [4] and 14.8 ± 3.77 µM in assay [6].
`Cc1c2ccncc2c(C)c2c1[nH]c1ccccc12` [Ellipticine]: the cell cycle effect result in [1] is “blockade of the cell cycle in the G0/G1 phase”; in [9] it was “stop the cell cycle in the G0/G1 phase”; in [10], “arrest cell cycle progression in both G1 and G2/M phases”; in assay [11] it was “stops the cell cycle in the G2/M phase”. Further, the IC50 in [7] is 1.25 ± 0.13 µM; in assay [3], 5.86 ± 0.51 µM; in [8], 4.7 ± 0.48 µM; in assay [5], 4.67 ± 0.53 µM. In addition, the GI50 turned out to be 0.72 ± 0.06 µM in assay [4] and 4.44 ± 0.74 µM in [6].
